In publication PMC6500773 (Psychopharmacology, 2018):
Where two headings read alike, the source gives them in different places.

What was measured:
hNET [1] = target: T1, hNET (Homo sapiens, UniProt P23975); settings: read-out: Inhibition of [3H]neurotransmitter uptake IC50 ± sem, hNET [3H]NE; HEK-hNET cells; ref Eshleman et al. 2017; cited from earlier work
hDAT [2] = target: T2, hDAT (Homo sapiens, UniProt Q01959); settings: cited from earlier work; for Ratio DAT/SERT: 1/(DAT IC50) divided by 1/(SERT IC50), uptake, ref Eshleman et al. 2017
T2 sequence (Q01959 whole entry): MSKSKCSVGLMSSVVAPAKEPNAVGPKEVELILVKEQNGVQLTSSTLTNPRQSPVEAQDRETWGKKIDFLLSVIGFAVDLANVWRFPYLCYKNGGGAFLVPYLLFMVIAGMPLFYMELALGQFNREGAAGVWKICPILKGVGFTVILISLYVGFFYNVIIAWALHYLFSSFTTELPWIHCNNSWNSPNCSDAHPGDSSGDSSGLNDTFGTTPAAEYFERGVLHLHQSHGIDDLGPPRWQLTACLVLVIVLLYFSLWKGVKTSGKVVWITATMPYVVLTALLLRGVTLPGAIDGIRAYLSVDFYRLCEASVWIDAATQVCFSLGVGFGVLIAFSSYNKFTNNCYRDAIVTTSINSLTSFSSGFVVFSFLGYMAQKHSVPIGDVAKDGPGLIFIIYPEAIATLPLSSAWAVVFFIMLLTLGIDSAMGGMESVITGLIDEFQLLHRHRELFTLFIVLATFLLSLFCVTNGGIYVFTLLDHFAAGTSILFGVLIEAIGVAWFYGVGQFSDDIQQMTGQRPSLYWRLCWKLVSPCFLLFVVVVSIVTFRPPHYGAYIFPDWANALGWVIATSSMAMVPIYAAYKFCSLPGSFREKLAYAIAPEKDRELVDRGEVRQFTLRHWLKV

hNET [3] = target: T1, hNET; assay: biochemical; type: binding
hNET [4] = target: T1, hNET; assay: cell-based
hSERT [5] = target: T3, hSERT (Homo sapiens, UniProt P31645); assay: Inhibition of [125I]RTI-55 binding, HEK-hSERT membranes
T3 sequence (P31645 whole entry): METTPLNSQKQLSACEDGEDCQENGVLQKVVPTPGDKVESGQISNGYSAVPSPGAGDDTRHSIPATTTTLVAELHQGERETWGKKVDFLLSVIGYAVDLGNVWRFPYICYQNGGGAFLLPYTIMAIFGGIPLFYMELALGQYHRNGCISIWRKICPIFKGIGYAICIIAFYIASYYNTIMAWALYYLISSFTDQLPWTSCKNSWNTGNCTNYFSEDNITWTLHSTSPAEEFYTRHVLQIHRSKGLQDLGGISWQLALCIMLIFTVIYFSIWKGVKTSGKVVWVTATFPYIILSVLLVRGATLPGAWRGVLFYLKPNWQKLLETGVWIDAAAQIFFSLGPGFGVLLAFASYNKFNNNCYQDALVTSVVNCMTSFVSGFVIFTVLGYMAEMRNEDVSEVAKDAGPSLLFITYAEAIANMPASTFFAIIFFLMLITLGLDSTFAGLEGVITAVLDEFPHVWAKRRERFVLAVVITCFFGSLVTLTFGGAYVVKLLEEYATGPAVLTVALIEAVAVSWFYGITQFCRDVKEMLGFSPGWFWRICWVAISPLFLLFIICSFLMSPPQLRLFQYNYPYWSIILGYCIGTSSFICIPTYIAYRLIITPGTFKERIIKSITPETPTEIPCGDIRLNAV

hSERT [6] = target: T3, hSERT; assay: Drug-induced release of preloaded [3H]5-HT from HEK-hSERT cells; type: cell-based; settings: for releasing efficacy at hSERT: [3H]5-HT release; for % maximum release ± sem, hSERT [3H]5-HT: relative to maximal AUC induced by METH (0.3–1 mM)
hDAT [7] = target: T2, hDAT; assay: Inhibition of [3H]DA uptake by HEK-hDAT cells; type: cell-based; settings: for Ratio DAT/SERT: 1/(DAT IC50) divided by 1/(SERT IC50), uptake, higher = more DAT selective
hDAT [8] = target: T2, hDAT; assay: Inhibition of [125I]RTI-55 binding, HEK-hDAT membranes
hDAT [9] = target: T2, hDAT; assay: Drug-induced release of preloaded [3H]DA from HEK-hDAT cells; type: cell-based; settings: for releasing efficacy at hDAT: [3H]DA release; for % maximum release ± sem, hDAT [3H]DA: relative to maximal AUC induced by METH (1 or 10 μM)
hSERT [10] = target: T3, hSERT; assay: Inhibition of [3H]5-HT uptake by HEK-hSERT cells; type: cell-based
hNET [11] = target: T1, hNET; assay: Drug-induced release of preloaded [3H]NE from HEK-hNET cells; type: cell-based; settings: for releasing efficacy at hNET: [3H]NE release; for % maximum release ± sem, hNET [3H]NE: relative to maximal AUC induced by METH (0.3 or 1 μM)
mouse striatum = settings: administered orally, ref Fuwa et al. 2016; cited from earlier work
hSERT [12] = target: T3, hSERT; settings: relative to maximal METH release; ref Eshleman et al. 2017; cited from earlier work
hNET [13] = target: T1, hNET; settings: ref Eshleman et al. 2017, cited from earlier work
hDAT [14] = target: T2, hDAT; settings: relative to maximal METH release; ref Eshleman et al. 2017; cited from earlier work
[15] = read-out: Inhibition of [125I]RTI-55 binding Ki ± sem, hNET, HEK-hNET membranes
[16] = read-out: Inhibition of [3H]neurotransmitter uptake IC50 ± sem, hNET [3H]NE, HEK-hNET cells
[17] = read-out: Inhibition of [125I]RTI-55 binding Ki ± sem, hDAT, HEK-hDAT membranes
[18] = read-out: Drug-induced release of [3H]neurotransmitter EC50 ± sem, hNET [3H]NE, HEK-hNET cells

T1 sequence (P23975 whole entry): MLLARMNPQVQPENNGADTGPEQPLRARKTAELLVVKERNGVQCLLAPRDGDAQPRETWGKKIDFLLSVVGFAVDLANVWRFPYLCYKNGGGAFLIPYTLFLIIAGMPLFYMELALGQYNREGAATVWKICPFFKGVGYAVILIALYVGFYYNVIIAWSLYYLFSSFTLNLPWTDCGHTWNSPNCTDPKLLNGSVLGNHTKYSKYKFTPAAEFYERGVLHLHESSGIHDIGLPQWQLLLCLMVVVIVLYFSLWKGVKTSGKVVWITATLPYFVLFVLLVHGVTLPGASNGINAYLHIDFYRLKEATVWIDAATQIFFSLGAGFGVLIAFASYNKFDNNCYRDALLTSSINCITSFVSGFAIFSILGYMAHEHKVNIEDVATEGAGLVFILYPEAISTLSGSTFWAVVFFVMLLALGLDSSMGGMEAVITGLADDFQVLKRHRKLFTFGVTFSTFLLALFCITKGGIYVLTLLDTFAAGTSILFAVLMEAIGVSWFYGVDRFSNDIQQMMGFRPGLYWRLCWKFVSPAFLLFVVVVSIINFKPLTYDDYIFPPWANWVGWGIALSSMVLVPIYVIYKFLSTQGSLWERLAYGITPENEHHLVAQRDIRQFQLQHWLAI

CCCC(NC)C(=O)c1ccc2c(c1)OCO2 (stereo not shown) [Pentylone]
IC50 (hNET [1]): 650 ± 160 nM | Ratio DAT/SERT (hDAT [2]): 4.9

CNC(COC)C(=O)c1ccc(C)cc1 (stereo not shown) [Mexedrone, 3-methoxy-2-(methylamino)-1-(p-tolyl)propan-1-one]
Ki (hNET [3]): > 27600 nM | IC50 (hNET [4]): 3190 ± 980 nM | Ki (hSERT [5]): 22200 ± 6200 nM | EC50 (hSERT [6]): 26100 ± 9300 nM | releasing efficacy at hSERT (hSERT [6]): full efficacy | % maximum release ± sem, hSERT [3H]5-HT (hSERT [6]): 84 ± 13% | IC50 (hDAT [7]): 2750 ± 220 nM | Ratio DAT/SERT (hDAT [7]): 2.0 | Ki (hDAT [8]): 8390 ± 540 nM | EC50 (hDAT [9]): > 100000 nM | releasing efficacy at hDAT (hDAT [9]): no hDAT efficacy | % maximum release ± sem, hDAT [3H]DA (hDAT [9]): 3.04 ± 0.61% | IC50 (hSERT [10]): 5400 ± 1200 nM | EC50 (hNET [11]): > 61000 nM | releasing efficacy at hNET (hNET [11]): minimal hNET efficacy | % maximum release ± sem, hNET [3H]NE (hNET [11]): 12.5 ± 3.1%

CCNC(C)Cc1ccc2occc2c1 (stereo not shown) [5-EAPB, reference compound]
increase in extracellular 5-HT levels (mouse striatum): 6- to 12 fold

CNC(C)Cc1ccc2occc2c1 (stereo not drawn) [5-MAPB, N,α-dimethyl-5-benzofuranethanamine]
Ki (hNET [3]; [15]): 3150 ± 270 nM | increase in extracellular 5-HT levels (mouse striatum): 6- to 12 fold | IC50 (hNET [4]; [16]): 73 ± 18 nM | releasing efficacy at hSERT (hSERT [6]): fully efficacious | % maximum release ± sem, hSERT [3H]5-HT (hSERT [6]): 104.3 ± 5.7% | Ratio DAT/SERT (hDAT [7]): 1.4 | Ki (hDAT [8]; [17]): 2660 ± 610 nM | releasing efficacy at hDAT (hDAT [9]): partially efficacious | % maximum release ± sem, hDAT [3H]DA (hDAT [9]): 53.8 ± 6.6% | releasing efficacy at hNET (hNET [11]): partially efficacious | EC50 (hNET [11]; [18]): 580 ± 210 nM | % maximum release ± sem, hNET [3H]NE (hNET [11]): 89.0 ± 8.0%

CCNC(C)C(=O)c1ccc2c(c1)OCO2 (stereo not shown) [ethylone]
Ratio DAT/SERT (hDAT [2]): 0.27

CNC(C)Cc1cc2ccccc2o1 (stereo not drawn) [2-MAPB, N,α-dimethyl-2-benzofuranethanamine]
Ki (hNET [3]; [15]): 1990 ± 220 nM | increase in extracellular 5-HT levels (mouse striatum): 6- to 12 fold | IC50 (hNET [4]; [16]): 39.3 ± 5.2 nM | releasing efficacy at hSERT (hSERT [6]): partial release | % maximum release ± sem, hSERT [3H]5-HT (hSERT [6]): 77.3 ± 5.3% | Ratio DAT/SERT (hDAT [7]): 3.0 | Ki (hDAT [8]; [17]): 1630 ± 440 nM | releasing efficacy at hDAT (hDAT [9]): partial release | % maximum release ± sem, hDAT [3H]DA (hDAT [9]): 48.0 ± 2.6% | releasing efficacy at hNET (hNET [11]): partial release | EC50 (hNET [11]; [18]): 450 ± 120 nM | % maximum release ± sem, hNET [3H]NE (hNET [11]): 63 ± 10%

CNC(C)Cc1ccc2c(c1)OCO2 (stereo not shown) [MDMA, reference compound]
Ki (hNET [3]; read-out: Inhibition of [125I]RTI-55 binding Ki ± sem, hNET): 15800 nM | % maximum release ± sem, hSERT [3H]5-HT (hSERT [12]): 85.1 ± 7.8% | IC50 (hNET [4]; read-out: Inhibition of [3H]neurotransmitter uptake IC50 ± sem, hNET [3H]NE): 630 nM | Ratio DAT/SERT (hDAT [7]): 0.25 | Ki (hDAT [8]; [17]): 31000 ± 4900 nM | EC50 (hNET [13]; [18]): 360 ± 92 nM | % maximum release ± sem, hNET [3H]NE (hNET [13]; relative to maximal METH release): 147 ± 15% | % maximum release ± sem, hDAT [3H]DA (hDAT [14]): 94 ± 10%

CCCC(NC)C(=O)c1ccccc1 (stereo not shown) [Pentedrone]
IC50 (hNET [1]): 239 ± 67 nM | Ratio DAT/SERT (hDAT [2]): 51

CNC(C)C(=O)c1ccc(C)cc1 (stereo not shown) [mephedrone]
DAT selectivity (DAT/SERT) (hDAT [2]; ref Eshleman et al. 2013, Luethi et al. 2018): 5.2 fold

CNC(C)Cc1ccc2c(c1)CCO2 (stereo not shown) [5-MAPDB, 1-(2,3-dihydrobenzofuran-5-yl)-N-methylpropan-2-amine]
Ki (hNET [3]): > 30000 nM | IC50 (hNET [4]): 560 ± 180 nM | Ki (hSERT [5]): 8800 ± 1700 nM | EC50 (hSERT [6]): 340 ± 35 nM | releasing efficacy at hSERT (hSERT [6]): fully efficacious | % maximum release ± sem, hSERT [3H]5-HT (hSERT [6]): 95.7 ± 8.9% | IC50 (hDAT [7]): 2790 ± 800 nM | Ratio DAT/SERT (hDAT [7]): 0.041 | Ki (hDAT [8]): > 30000 nM | EC50 (hDAT [9]): 34700 ± 9600 nM | % maximum release ± sem, hDAT [3H]DA (hDAT [9]): 32 ± 13% | IC50 (hSERT [10]): 113 ± 30 nM | selectivity for SERT over DAT (uptake potency) (hSERT [10]; uptake inhibition potencies): 25 fold | EC50 (hNET [11]): 840 ± 310 nM | % maximum release ± sem, hNET [3H]NE (hNET [11]): 64.2 ± 4.7%

CCCC(C(=O)c1ccccc1)N1CCCC1 (stereo not drawn) [α-PVP]
IC50 (hNET [1]): 46 ± 18 nM | Ratio DAT/SERT (hDAT [2]): 2900

CN[C@@H](C)Cc1ccccc1 [METH, methamphetamine, reference compound]
Ki (hNET [3]): 2510 ± 240 nM | IC50 (hNET [4]; [16]): 25.8 ± 3 nM | Ki (hSERT [5]): 150000 ± 17000 nM | EC50 (hSERT [6]): 14500 ± 4200 nM | % maximum release ± sem, hSERT [3H]5-HT (hSERT [6]): 101.8 ± 3.1% | IC50 (hDAT [7]): 97 ± 13 nM | Ratio DAT/SERT (hDAT [7]): 96 | Ki (hDAT [8]): 4410 ± 430 nM | EC50 (hDAT [9]): 1200 ± 350 nM | % maximum release ± sem, hDAT [3H]DA (hDAT [9]): 106.7 ± 2.3% | IC50 (hSERT [10]): 9300 ± 1100 nM | EC50 (hNET [11]): 255 ± 78 nM | % maximum release ± sem, hNET [3H]NE (hNET [11]): 107.5 ± 8.7%
